Laboratory results reported in ChEMBL document CHEMBL1131269, “Enhancing effects of a mono-bromo substitution at the para position of the phenyl moiety on the metabolism and anti-HIV activity of d4T-phenyl methoxyalaninyl phosphate derivatives” (Bioorg Med Chem Lett, 1998).

Key:
Conditions in all cases: Homo sapiens
CCRF-CEM [1] = test: Compound was tested for anti-HIV activity in TK-deficient CEM cells by inhibition of reverse transcriptase activity; format: functional, cell-based
CCRF-CEM [2] = test: Compound was tested for anti-HIV activity in TK-deficient CEM cells by microculture tetrazolium assay; format: functional, cell-based
CCRF-CEM [3] = test: Compound was tested for anti-HIV activity in TK-deficient CEM cells by p24 production assay; format: functional, cell-based
[4] = Compound was tested for anti-HIV activity in normal peripheral blood mononuclear cells by inhibition of reverse transcriptase activity; format: functional
[5] = Compound was tested for anti-HIV activity in normal peripheral blood mononuclear cells by microculture tetrazolium assay; format: functional
[6] = Compound was tested for anti-HIV activity in normal peripheral blood mononuclear cells by p24 production assay; format: functional
[7] = Compound was tested for anti-HIV activity in normal peripheral blood mononuclear cells infected with HIV-1(RTMDR-1) virus by inhibition of reverse transcriptase activity; format: functional
[8] = Compound was tested for anti-HIV activity in normal peripheral blood mononuclear cells infected with HIV-2 virus by inhibition of reverse transcriptase activity; format: functional

Compound | IC50 (CCRF-CEM [1]) | IC50 (CCRF-CEM [2]) | IC50 (CCRF-CEM [3]) | IC50 [4] | IC50 [5] | IC50 [6] | IC50 [7] | IC50 [8]
COC(=O)C(C)NP(=O)(OC[C@@H]1C=C[C@H](n2cc(C)c(=O)[nH]c2=O)O1)Oc1ccc(Br)cc1 (some centres not stated) [STAMPIDINE] | 0.06 µM | > 10 µM | 0.04 µM | 0.04 µM | > 10 µM | 0.02 µM | 0.02 µM | 0.4 µM
COC(=O)C(C)NP(=O)(OC[C@@H]1C=C[C@H](n2cc(C)c(=O)[nH]c2=O)O1)Oc1ccc(OC)cc1 (some centres not stated) | 0.3 µM | > 10 µM | 0.1 µM | 0.03 µM | > 10 µM | 0.03 µM | – | –
COC(=O)C(C)NP(=O)(OC[C@H]1O[C@@H](n2cc(C)c(=O)[nH]c2=O)C[C@@H]1N=[N+]=[N-])Oc1ccc(Br)cc1 (some centres not stated) | 0.04 µM | > 10 µM | – | 0.004 µM | > 10 µM | – | 1.5 µM | 3.9 µM
COC(=O)C(C)NP(=O)(OC[C@@H]1C=C[C@H](n2cc(C)c(=O)[nH]c2=O)O1)Oc1ccccc1 (some centres not stated) | 0.1 µM | > 10 µM | 0.1 µM | – | > 10 µM | – | – | –
Cc1cn([C@H]2C[C@H](N=[N+]=[N-])[C@@H](CO)O2)c(=O)[nH]c1=O (single isomer, unassigned) [ZIDOVUDINE] | – | – | – | – | – | – | 2 µM | 2.4 µM
Cc1cn([C@H]2C=C[C@@H](CO)O2)c(=O)[nH]c1=O [STAVUDINE] | 2.4 µM | > 10 µM | 0.6 µM | 0.04 µM | > 10 µM | 0.02 µM | – | –
